Legend:
CgLDC = biological target: T1, CgLDC (Colletotrichum gloeosporioides, UniProt A0A1X9J191); test: LC-MS detection of cadaverine (m/z […]); type: biochemical; conditions: pyridoxal phosphate 40 µg, potassium phosphate pH 8.0, 37 °C, 45 min; boiled enzyme as negative control
T1 construct: 256 residues, 28 kDa, cDNA 769 bp
T1 sequence (A0A1X9J191 62-294): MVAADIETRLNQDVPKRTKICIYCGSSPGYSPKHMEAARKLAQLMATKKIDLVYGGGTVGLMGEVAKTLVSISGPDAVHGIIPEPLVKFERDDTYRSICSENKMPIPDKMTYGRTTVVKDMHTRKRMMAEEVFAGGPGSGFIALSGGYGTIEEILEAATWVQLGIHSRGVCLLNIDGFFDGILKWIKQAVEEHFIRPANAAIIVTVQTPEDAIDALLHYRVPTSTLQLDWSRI

CgCAO = biological target: T2, CgCAO (Colletotrichum gloeosporioides, UniProt A0A191JKR0); test: LC-MS detection of delta1-piperideine (m/z […]); type: biochemical; conditions: 1 mM cadaverine, 50 mM Tris-HCl pH 8.0, 25 °C, 16 h; boiled enzyme as negative control
T2 construct: 672 residues, 76 kDa, cDNA 2072 bp
T2 sequence (A0A191JKR0 1-684): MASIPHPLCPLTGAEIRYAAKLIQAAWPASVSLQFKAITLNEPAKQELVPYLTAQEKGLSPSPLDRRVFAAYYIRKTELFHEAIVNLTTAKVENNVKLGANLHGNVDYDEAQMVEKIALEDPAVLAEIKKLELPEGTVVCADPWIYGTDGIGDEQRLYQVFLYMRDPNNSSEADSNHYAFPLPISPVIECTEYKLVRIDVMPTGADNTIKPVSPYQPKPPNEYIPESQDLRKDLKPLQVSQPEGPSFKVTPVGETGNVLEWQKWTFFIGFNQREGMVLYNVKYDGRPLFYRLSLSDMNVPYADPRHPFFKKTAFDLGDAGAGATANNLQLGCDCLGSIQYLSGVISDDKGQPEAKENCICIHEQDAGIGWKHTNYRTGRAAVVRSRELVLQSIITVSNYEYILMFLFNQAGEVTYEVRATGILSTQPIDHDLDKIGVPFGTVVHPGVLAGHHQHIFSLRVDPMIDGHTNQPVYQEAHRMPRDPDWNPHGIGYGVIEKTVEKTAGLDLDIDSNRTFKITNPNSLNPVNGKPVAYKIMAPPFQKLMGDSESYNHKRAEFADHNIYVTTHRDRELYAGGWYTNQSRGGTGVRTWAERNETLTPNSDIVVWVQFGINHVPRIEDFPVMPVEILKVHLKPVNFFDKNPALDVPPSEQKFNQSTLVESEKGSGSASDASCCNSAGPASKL

`NCCCC[C@H](N)C(=O)O` [L-lysine] was tested, and the “LC-MS detection of cadaverine (m/z 103)” value (CgLDC) was “CgLDC catalyzed the conversion of L-lysine to cadaverine”.

With `NCCCCCN` [cadaverine] the “LC-MS detection of delta1-piperideine (m/z 84)” value (CgCAO) was “CgCAO converted cadaverine to 5-aminopentanal”.

From article PMC5459845, “Expression and functional analysis of the lysine decarboxylase and copper amine oxidase genes from the endophytic fungus Colletotrichum gloeosporioides ES026” (Scientific Reports, 2017)
